Measured values reported in US20230139171A1 (SITA Information Networking Computing UK Limited, priority 2019, published 2023).
pIC50: −log10 of the molar value.

What was measured:
[1] = biological target: T1, human TLR7 (Homo sapiens, UniProt Q9NYK1); experiment: TLR7 inhibition reporter assay (HEK-Blue cells, SEAP reporter, gardiquimod stimulation); assay type: cell-based; conditions: HEK-Blue cells overexpressing human TLR7, SEAP reporter, gardiquimod 7.5 μM; read-out: TLR7 IC50
T1 construct: host or cells: HEK-Blue cells
T1 sequence (Q9NYK1 27-1049): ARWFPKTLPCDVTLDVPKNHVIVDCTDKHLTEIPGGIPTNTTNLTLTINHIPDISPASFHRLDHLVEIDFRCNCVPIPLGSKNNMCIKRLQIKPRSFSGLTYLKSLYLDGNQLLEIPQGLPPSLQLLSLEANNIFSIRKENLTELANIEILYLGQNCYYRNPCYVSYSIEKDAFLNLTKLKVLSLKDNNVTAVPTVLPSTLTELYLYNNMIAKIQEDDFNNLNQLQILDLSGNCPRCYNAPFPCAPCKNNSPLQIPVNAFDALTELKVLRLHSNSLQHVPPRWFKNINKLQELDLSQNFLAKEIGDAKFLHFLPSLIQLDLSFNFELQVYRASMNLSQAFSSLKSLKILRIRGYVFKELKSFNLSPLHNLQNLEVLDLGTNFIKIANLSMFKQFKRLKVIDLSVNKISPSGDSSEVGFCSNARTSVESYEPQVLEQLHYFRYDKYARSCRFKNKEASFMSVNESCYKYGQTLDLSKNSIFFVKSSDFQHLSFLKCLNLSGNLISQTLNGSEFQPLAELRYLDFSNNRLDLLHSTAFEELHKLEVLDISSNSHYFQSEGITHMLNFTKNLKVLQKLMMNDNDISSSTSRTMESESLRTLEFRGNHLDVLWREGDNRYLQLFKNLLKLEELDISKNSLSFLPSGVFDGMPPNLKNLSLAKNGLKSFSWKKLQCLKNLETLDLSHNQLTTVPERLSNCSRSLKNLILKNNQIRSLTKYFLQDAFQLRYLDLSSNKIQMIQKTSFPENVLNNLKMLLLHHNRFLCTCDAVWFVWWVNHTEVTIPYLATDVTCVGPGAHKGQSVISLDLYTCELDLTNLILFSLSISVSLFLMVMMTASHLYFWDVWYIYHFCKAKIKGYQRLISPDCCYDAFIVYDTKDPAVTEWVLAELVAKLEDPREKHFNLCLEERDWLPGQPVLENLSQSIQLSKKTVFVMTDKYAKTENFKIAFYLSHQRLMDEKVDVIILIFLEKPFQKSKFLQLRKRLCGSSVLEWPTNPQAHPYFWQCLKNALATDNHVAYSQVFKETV
Outline: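 Dose–response from 0.05 nM to 50 μM was run in HEK-Blue human TLR7, TLR8 and TLR9 reporter cells. After 30 min at room temperature with compound, ligand was added (TLR7 gardiquimod 7.5 μM; TLR8 R848 15.9 μM; TLR9 ODN2006 5 nM) and SEAP measured next day, at 22 h.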

[2] = system: TLR7; experiment: In vivo mouse TLR7 PD model (gardiquimod challenge, plasma IL-6 and IFN-alpha by ELISA); design: species or system C57BL/6 mice; conditions: oral
Procedure: In Vivo Mouse TLR7 PD Model:
Adult male C57BL/6 mice were used for the experiments. Mice (7 to 10 per group) were randomized into different treatment groups based on body weight. Mice from the respective treatment groups were administered orally with vehicle or test compound. Thirty min after the oral administration of vehicle or test compound, mice were challenged with intraperitoneal injection of gardiquimod for TLR7 PD model. Ninety minutes after gardiquimod injection, mice were bled under isoflurane anaesthesia and plasma IL-6 and IFN-alpha levels were estimated by using commercially available ELISA kit (BD Biosciences, PBL Life Sciences). At the end of experiment, mean cytokine data was plotted and one way ANOVA with Dunnett's test was performed to calculate the significance of test compound treated group vs. vehicle control group. Percent inhibition of cytokine induction was calculated for test compound treated group vs vehicle control group.

In the case of COc1cc(-c2[nH]c3sc(C4CCC(NC5COC5)CC4)nc3c2C(C)C)cn2ncnc12 (single isomer, unassigned) [Example 65, N-(4-(6-isopropyl-5-(8-methoxy-[1,2,4]triazolo[1,5-a]pyridin-6-yl)-4H-pyrrolo[3,2-d]thiazol-2-yl)cyclohexyl)oxetan-3-amine], the pIC50 [1] was 9.26, the “% inhibition of IFN-alpha” value ([2]; dose 0.001 mg/kg) was 50% and the “% inhibition of IL6” value ([2]; dose 0.001 mg/kg) was 21%. The “% inhibition of IFN-alpha” value ([2]; dose 0.005 mg/kg) was 63%, the “% inhibition of IL6” value ([2]; dose 0.005 mg/kg) was 42% and the “% inhibition of IFN-alpha” value ([2]; dose 0.025 mg/kg) was 97%. For the same compound, the “% inhibition of IL6” value ([2]; dose 0.025 mg/kg) was 78%, the “% inhibition of IFN-alpha” value ([2]; dose 0.050 mg/kg) was 99% and the “% inhibition of IL6” value ([2]; dose 0.050 mg/kg) was 94%.
